Reference: patent US8518958B2, “Pyrido [2,3-D] pyrimidines and their use as kinase inhibitors” (Forma Therapeutics, Inc., priority 2006, dated 2013)
pIC50: −log10 of the molar value.

How the values were obtained:
[1] = target: B-Raf delta1-415 (Homo sapiens, UniProt P15056); test: B-Raf kinase inhibition (MAPH filter plate, 33P-ATP, MEK1 substrate); settings: read-out: Biochemical IC50 B-Raf
Summary of the method: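 IC50 values come from dilution series (top 10 μM) measured by scintillation counting of 33P-labelled MEK1 retained on H3PO4-washed filters. Reactions ran 1 h at room temperature in pH 7.0 Mops buffer with MgCl2, MnCl2 and DTT, using 12.5 μCi/ml [γ-33P]ATP and B-Raf delta1-415 titrated to 50% turnover.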

[2] = tested on: HT-29 tumor cells; test: Anti-proliferative activity, SRB assay; assay type: cell-based, human; settings: Homo sapiens, HT-29, 72 h, 72 hours exposure, read-out: CELLULAR IC50 HT-29
Summary of the method: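 IC50 derived from % inhibition relative to DMSO controls, measured by sulforhodamine B binding (OD570) after TCA fixation. Cells (3,000-15,000 per well) were seeded a day ahead, then treated with graded compound concentrations for 72 hours.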

Sequence of B-Raf delta1-415 (P15056 416-766): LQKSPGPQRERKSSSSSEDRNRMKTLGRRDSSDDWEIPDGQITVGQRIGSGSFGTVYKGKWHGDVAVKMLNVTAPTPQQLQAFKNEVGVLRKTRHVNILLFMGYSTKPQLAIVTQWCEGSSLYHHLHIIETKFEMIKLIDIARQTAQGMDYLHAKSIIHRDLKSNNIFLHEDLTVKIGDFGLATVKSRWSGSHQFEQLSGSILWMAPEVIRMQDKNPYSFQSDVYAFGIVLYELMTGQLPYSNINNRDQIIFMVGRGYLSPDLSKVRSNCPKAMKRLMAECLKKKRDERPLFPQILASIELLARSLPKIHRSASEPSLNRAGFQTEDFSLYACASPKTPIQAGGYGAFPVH

SMILES	pIC50 [1]	pIC50 [2]
COCCN(C)C(=O)c1cc(Nc2ncc3cc(-c4c(Cl)cccc4Cl)c(=O)n(OC)c3n2)cn1C [Compound 154, 6-(2,6-Dichlorophenyl)-8-methoxy-2-(5-N-(2-methoxyethyl)-N-methyl-aminocarbonyl-1-methyl-pyrrol-3-yl)-amino-pyrido[2,3-d]pyrimidin-7-one]	> 6.30	> 6.00
Nc1ncc2cc(-c3c(Cl)cccc3Cl)c(=O)n(OCc3cccnc3)c2n1 [Compound 232, 2-Amino-6-(2,6-dichlorophenyl)-8-(pyrid-3-yl)methoxy-pyrido[2,3-d]pyrimidin-7-one]	> 6.00	> 5.00
COn1c(=O)c(-c2c(Cl)cccc2Cl)cc2cnc(NC(=O)C3CC3)nc21 [Compound 80, 2-Cyclopropylcarbonylamino-6-(2,6-dichlorophenyl)-8-methoxy-pyrido[2,3-d]pyrimidin-7-one]	< 6.00	< 5.00
COn1c(=O)c(-c2c(Cl)cccc2Cl)cc2cnc(Nc3cc[nH]n3)nc21 [Compound 88, 6-(2,6-Dichlorophenyl)-8-methoxy-2-(pyrazol-3-yl)-amino-pyrido[2,3-d]pyrimidin-7-one]	> 6.30	> 5.00
CCN1CCN(c2ccc(Nc3ncc4cc(-c5c(Cl)cccc5Cl)c(=O)n(OC)c4n3)cc2)CC1 [Compound 189, 6-(2,6-Dichlorophenyl)-2-(4-(4-ethylpiperazino)phenyl)-amino-8-methoxy-pyrido[2,3-d]pyrimidin-7-one]	> 6.30	> 6.00
COn1c(=O)c(-c2c(Cl)cccc2Cl)cc2cnc(Nc3ccc(Cc4n[nH]c(C)n4)cc3)nc21 [Compound 151, 6-(2,6-Dichlorophenyl)-8-methoxy-2-(4-(5-methyl-1,2,4-triazol-3-yl)methylphenyl)-amino-pyrido[2,3-d]pyrimidin-7-one]	> 6.30	> 6.00
COc1cccc(Nc2ncc3cc(-c4c(F)cccc4Cl)c(=O)n(OC[C@H](O)CO)c3n2)c1 [Compound 76, 6-(2-Chloro-6-fluorophenyl)-8-(2-(R)-2,3-dihydroxypropyl)oxy-2-(3-methoxyphenyl)amino-pyrido[2,3-d]pyrimidin-7-one]	> 6.30	> 6.00
COn1c(=O)c(-c2c(Cl)cccc2Cl)cc2cnc(Nc3ccccc3F)nc21 [Compound 190, 6-(2,6-Dichlorophenyl)-2-(2-fluorophenyl)amino-8-methoxy-pyrido[2,3-d]pyrimidin-7-one]	< 6.00	> 6.00
O=c1c(-c2c(F)cccc2Cl)cc2cnc(Nc3ccccc3)nc2n1OCc1cccnc1 [Compound 153, 6-(2-Chloro-6-fluorophenyl)-2-phenylamino-8-(pyrid-3-ylmethyl)oxy-pyrido[2,3-d]pyrimidin-7-one]	> 6.30	> 6.00
COn1c(=O)c(-c2c(Cl)cccc2Cl)cc2cnc(NCc3ccncc3)nc21 [Compound 147, 6-(2,6-Dichlorophenyl)-8-methoxy-2-pyrid-4-ylmethylamino-pyrido[2,3-d]pyrimidin-7-one]	> 6.30	> 5.00
COn1c(=O)c(-c2c(Cl)cccc2Cl)cc2cnc(Nc3ccc(C#N)cc3)nc21 [Compound 86, 2-(4-Cyanophenyl)-amino-6-(2,6-dichlorophenyl)-8-methoxy-pyrido[2,3-d]pyrimidin-7-one]	> 6.00	> 6.00
CNS(=O)(=O)Cc1ccc(Nc2ncc3cc(-c4c(Cl)cccc4Cl)c(=O)n(OC)c3n2)cc1 [Compound 125, 6-(2,6-dichlorophenyl)-8-methoxy-2-(4-(methylaminosulfonylmethyl)phenyl)-amino-pyrido[2,3-d]pyrimidin-7-one]	> 7.00	> 6.00

Continued, values first:

pIC50 [1]	pIC50 [2]	SMILES
> 7.00	> 6.00	COn1c(=O)c(-c2c(Cl)cccc2Cl)cc2cnc(Nc3ccc(S(=O)(=O)CCCO)cc3)nc21 [Compound 160, 6-(2,6-Dichlorophenyl)-2-(4-(3-hydroxypropyl)sulfonylphenyl)-amino-8-methoxy-pyrido[2,3-d]pyrimidin-7-one]
> 7.00	> 5.00	COn1c(=O)c(-c2c(Cl)cccc2Cl)cc2cnc(Nc3cc(C(=O)NC[C@@H](O)CO)n(C)c3)nc21 [Compound 117, 6-(2,6-Dichlorophenyl)-2-(5-(2-(R)-2,3-dihydroxyethylamino)carbonyl-1-methyl-pyrrol-3-yl)-amino-8-methoxy-pyrido[2,3-d]pyrimidin-7-one]
> 7.00	> 6.00	COn1c(=O)c(-c2c(F)cccc2Cl)cc2cnc(Nc3ccc(C4CCNCC4)cc3)nc21 [Compound 222, 6-(2-Chloro-6-fluorophenyl)-8-methoxy-2-(4-(piperidin-4-yl)phenyl)-amino-pyrido[2,3-d]pyrimidin-7-one]
> 7.00	> 6.00	COCCOn1c(=O)c(-c2c(Cl)cccc2Cl)cc2cnc(Nc3ccc(N4CCN(C(C)C)CC4)cc3)nc21 [Compound 205, 6-(2,6-Dichlorophenyl)-8-(2-methoxyethyl)oxy-2-(4-(4-(1-methylethyl)piperazino)phenyl)-amino-pyrido[2,3-d]pyrimidin-7-one]
> 7.00	> 6.00	COCCN(C)C(=O)c1cc(Nc2ncc3cc(-c4c(F)cccc4Cl)c(=O)n(OC)c3n2)cn1C [Compound 194, 6-(2-Chloro-6-fluorophenyl)-2-(5-N-(2-methoxyethyl)-N-methyl-aminocarbonyl-1-methyl-pyrrol-3-yl)-amino-8-methoxy-pyrido[2,3-d]pyrimidin-7-one]
> 7.00	> 6.00	CN1CC[C@H](COn2c(=O)c(-c3c(F)cccc3Cl)cc3cnc(Nc4ccc(N5CCOCC5)cc4)nc32)C1 [Compound 212, 6-(2-Chloro-6-fluorophenyl)-8-(3-(S)-1-methyl-pyrrolidin-3-yl)methoxy-2-(4-morpholinophenyl)-amino-pyrido[2,3-d]pyrimidin-7-one]
> 7.00	> 6.00	COCCOn1c(=O)c(-c2c(F)cccc2Cl)cc2cnc(Nc3ccc(N4CCOCC4)cc3)nc21 [Compound 121]
> 7.00	> 6.00	COn1c(=O)c(-c2c(Cl)cccc2Cl)cc2cnc(Nc3ccc(OCCN4CC[C@H](O)C4)cc3)nc21 [Compound 92, 6-(2,6-Dichlorophenyl)-2-(4-(2-(3-(S)-hydroxypyrrolidino)ethyl)oxyphenyl)amino-8-methoxy-pyrido[2,3-d]pyrimidin-7-one]
> 7.00	> 6.00	COn1c(=O)c(-c2c(Cl)cccc2Cl)cc2cnc(Nc3ccc(N4CCCN(C)CC4)cc3)nc21 [Compound 221, 6-(2,6-Dichlorophenyl)-8-methoxy-2-(4-(4-methyl-1,4-diazacycloheptyl)phenyl-)-amino-pyrido[2,3-d]pyrimidin-7-one]
